According to patent US20250199015A1, “CYCLIN-DEPENDENT KINASE 2 INHIBITORS FOR MEDICAL TREATMENT” (INCYCLIX BIO, LLC, priority 2022, published 2025):
Entries after “also recorded” stand apart in the source; their conditions may differ. Read-outs that look alike come from different tables or passages of the source.

How the values were obtained:
[1] = biological target: T1, human OCT2 (Homo sapiens, UniProt O15244); experiment: SLC transporter inhibition in HEK293 cells; assay type: in vitro ADME
T1 construct: expressed in transfected cells; host or cells: HEK293
T1 sequence (O15244 1-555): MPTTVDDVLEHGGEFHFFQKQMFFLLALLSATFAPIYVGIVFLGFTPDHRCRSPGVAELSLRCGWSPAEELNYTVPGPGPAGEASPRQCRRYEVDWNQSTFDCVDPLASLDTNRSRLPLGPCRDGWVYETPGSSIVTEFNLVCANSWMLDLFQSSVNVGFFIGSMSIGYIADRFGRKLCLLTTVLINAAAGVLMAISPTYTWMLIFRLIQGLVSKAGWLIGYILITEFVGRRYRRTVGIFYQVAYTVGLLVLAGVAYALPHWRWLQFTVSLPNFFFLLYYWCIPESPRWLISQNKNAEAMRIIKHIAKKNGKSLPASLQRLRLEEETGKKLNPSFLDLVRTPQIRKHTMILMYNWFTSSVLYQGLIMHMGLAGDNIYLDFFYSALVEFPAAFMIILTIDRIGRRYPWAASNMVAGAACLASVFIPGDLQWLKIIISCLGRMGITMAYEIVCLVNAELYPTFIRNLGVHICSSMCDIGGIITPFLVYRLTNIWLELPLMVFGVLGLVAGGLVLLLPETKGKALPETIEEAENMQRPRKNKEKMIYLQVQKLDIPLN

[2] = tested on: H526 cells; experiment: Cell cycle by EdU flow cytometry (nocodazole release, time course, cisplatin combination); assay type: cell-based, human; details: 300 nM
Experimental: The H526 human lung carcinoma cell line was grown in RPMI-1640/1× Glutamax/10% fetal bovine serum and was plated at 200,000 cells/well in Corning 6 well tissue culture treated plates. Cells were incubated at 37° C. for 24 hours prior to addition of 50 ng/mL nocodazole to arrest the cells in G2/M. One plate was untreated for comparison. After 16 hours, the asynchronous well and one synchronized well were collected. […] Cells were incubated with 10 μM EdU for 1 hour prior to collected and were then fixed in 1% paraformaldehyde. Cells were incubated with Pacific blue azide dye as described by Thermo Scientific. Cells were then incubated with FarRed dye and RNase. Cells were analyzed on a BD Celesta and data compiled using FloJo and GraphPad (FIG. 23). Cells survived slightly better with lower nocodazole dose (50 vs 100 ng/mL) but there was still cell death observed, particularly following S phase after release.
The H526 human lung carcinoma cell line was grown in RPMI-1640/1× Glutamax/10% fetal bovine serum and was plated at 200,000 cells/well in Corning 6 cm tissue culture treated plates. […] Cells were treated for the indicated amount of time, with 10 μM EdU added for the last hour of treatment. Cells were collected and fixed in 1% paraformaldehyde. Cells were incubated with Alexa 488 azide dye as described by Thermo Scientific. Cells were then incubated with FarRed dye and RNase. Cells were analyzed on a BD Celesta and data compiled using FloJo and GraphPad (FIG. 24).
The H526 human lung carcinoma cell line was grown in RPMI-1640/1× Glutamax/10% fetal bovine serum and was plated at 200,000 cells/well in Corning 6 cm tissue culture treated plates. Cells were incubated at 37° C. for 24 hours prior to addition of the first treatment. […] Cells were treated to 24 hours post-initial treatment, with 10 μM EdU added at hour 23 (FIG. 28A). Cells were collected and fixed in 1% paraformaldehyde. Cells were incubated with pacific blue azide dye as described by Thermo Scientific. Cells were then incubated with antibody against γ-H2AX at a ratio of 1:50 before incubation with FarRed dye and RNase. Cells were analyzed on a BD Celesta and data compiled using FloJo and GraphPad.

[3] = tested on: Kuramochi cells; experiment: CellTiter Glo cell proliferation assay; assay type: cell-based, human; details: CCNE1 gained, six days
Experimental: Plates were returned to the incubator for six additional days. On day six post dosing, plates were removed and treated with CellTiter Glo reagent following manufacturer's specifications. Plates were incubated 45 minutes at room temperature and run on Biotek luminometer with 1 sec/well detection. Results were converted to Microsoft Excel and transferred to Graphpad Prism for analysis. […] These cell types are distinguished by either gained of cyclin E1 expression or activation (Kuramochi) or intrinsic amplification of cyclin E1 (OVCAR-3, COV318).
(§1) The Kuramochi human ovarian carcinoma cell line was grown in RPMI-1640/1× Glutamax/10% fetal bovine serum and the FUOV-1 human ovarian carcinoma cell line was grown in DMEM/F12/1× Glutamax/10% fetal bovine serum and both were plated at 1,000 cells/well in Corning 96 well white wall/clear bottom tissue culture treated plates. […] Plates were removed from incubator at each specified timepoint and treated with CellTiter-Glo (Promega, Inc) following manufacturer specifications. Plates were then read on CLARIOstar luminometer with 1 sec/well integration. Results were converted to Microsoft Excel and transferred to GraphPad Prism for Analysis (FIG. 16A-B).

[4] = Mouse hollow fiber assay, animal weight; assay type: in vivo, mice; details: 75, 100, 150 mg/kg twice daily
Experimental: The mouse hollow fiber assay was conducted using three tumor cell lines, OVCAR-3 (ovarian), MKN-1 (gastric), and HCC-1569 (breast), 1e7 OVCAR-3, 5e6 MKN-1, and 1e7 HCC-1569 cells were loaded into Hollow Fibers, placed in cell culture dishes containing RPMI-1640 with 20% FCS and 1% penicillin/streptomycin, and were equilibrated in an incubator at 37 C, 5% CO2 overnight. On Day 0, three fibers were implanted in two different compartments: subcutaneous and intraperitoneal of twenty-four female NMRI nude mice ages 4-5 weeks. […] Female NMRI nude mice were implanted both subcutaneously and intraperitoneally with HCC-1569, MKN1, and OVCAR3 tumor cell-loaded Hollow Fibers on Day 0. The number of animals alive on Day 0 (implantation) and on Day 16 (necropsy) in each group is shown in parentheses in the legend.

[5] = biological target: T2, human OATP1B1 (Homo sapiens, UniProt Q9Y6L6); experiment: SLC transporter inhibition in HEK293 cells; assay type: in vitro ADME
T2 construct: expressed in transfected cells; host or cells: HEK293
T2 sequence (Q9Y6L6 whole entry): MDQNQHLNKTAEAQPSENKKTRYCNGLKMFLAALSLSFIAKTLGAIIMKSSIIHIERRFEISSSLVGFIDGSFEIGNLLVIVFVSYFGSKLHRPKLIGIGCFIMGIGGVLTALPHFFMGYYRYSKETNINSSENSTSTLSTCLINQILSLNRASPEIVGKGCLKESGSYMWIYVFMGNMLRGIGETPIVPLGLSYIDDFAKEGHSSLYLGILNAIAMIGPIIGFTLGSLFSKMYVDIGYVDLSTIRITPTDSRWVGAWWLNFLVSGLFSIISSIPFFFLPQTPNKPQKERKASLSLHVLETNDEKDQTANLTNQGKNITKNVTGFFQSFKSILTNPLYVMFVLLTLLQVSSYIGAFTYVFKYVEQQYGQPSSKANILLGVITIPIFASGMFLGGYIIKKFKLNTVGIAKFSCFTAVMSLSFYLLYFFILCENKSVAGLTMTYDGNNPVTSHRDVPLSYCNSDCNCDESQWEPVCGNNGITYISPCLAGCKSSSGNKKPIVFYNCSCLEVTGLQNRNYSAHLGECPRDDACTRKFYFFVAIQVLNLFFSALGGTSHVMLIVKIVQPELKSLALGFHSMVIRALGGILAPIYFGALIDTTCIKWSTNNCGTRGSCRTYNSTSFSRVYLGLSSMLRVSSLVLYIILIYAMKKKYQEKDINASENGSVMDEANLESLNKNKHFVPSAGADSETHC

[6] = tested on: FUOV-1 cells; experiment: CellTiter-Glo cell proliferation assay; assay type: cell-based; details: Homo sapiens, 144 h; 6 days; read-out: IC50 in FUOV1 cells
Experimental: as §1

[7] = tested on: CYP2B6 transcription; experiment: CYP induction (transcription); assay type: in vitro ADME; details: up to 3 μM, 24 hours

NS(=O)(=O)c1ccc(Nc2ncc3cc4n(c3n2)C2(CCCCC2)C(=O)NN4)cc1 [Compound I]
Maximum Percent inhibition ([1]; OCT2, HEK293 cells): 49% | IC50 ([1]; OCT2, HEK293 cells, estimated, read-out: IC50): 17.1 µM | IC50 ([1]; read-out: OCT2 IC50): 17.1 µM | S phase entry after nocodazole release [2]: slower to enter S phase | cells in G1 phase compared with PF-07104091 ([2]; 24 hours): Substantially fewer H526 cells treated with Compound I were in G1 phase | cells in G2/M phase compared to control ([2]; 24 hours): increase of cells in G2/M phase | cells in S phase compared with PF-07104091 ([2]; 48 hours): substantially fewer H526 cells treated with Compound I were in S phase | cell viability compared with palbociclib [3]: potently decreases cell viability; also recorded: at concentrations substantially lower than palbociclib | animal weight [4]: No animal weight changes were observed | IC50 [5]: 3.81 µM | Maximum Percent inhibition ([5]; OATP1B1, HEK293 cells): 93% | IC50 [6]: 0.016 µM | induction of CYP2B6 transcription [7]: no observed induction
